From ChEMBL document CHEMBL3351528, “Targeting dopamine D3 and serotonin 5-HT1A and 5-HT2A receptors for developing effective antipsychotics: synthesis, biological characterization, and behavioral studies” (J Med Chem, 2014) come the findings set out here.

One series deals with Mus musculus. Kind of series: Toxicity in NMRI mouse assessed as induction of catalepsy up to 90 mg/kg, sc dosed 30 mins before test. The conditions noted are these: in vivo, 0.5 h. Set-up: dose 90 mg/kg, route subcutaneous. Format: organism-based.
In series [1] the target is 5-hydroxytryptamine receptor 2A (Rattus norvegicus, UniProt P14842). Kind of series: Antagonist activity at 5HT2A receptor in rat aortic rings assessed as reduction in 5-HT-induced contraction.
In series [2] the target is T1, Adrenergic receptor alpha-1 (Homo sapiens, UniProt P35348+P25100+P35368).
T1 sequence (P35348 whole entry): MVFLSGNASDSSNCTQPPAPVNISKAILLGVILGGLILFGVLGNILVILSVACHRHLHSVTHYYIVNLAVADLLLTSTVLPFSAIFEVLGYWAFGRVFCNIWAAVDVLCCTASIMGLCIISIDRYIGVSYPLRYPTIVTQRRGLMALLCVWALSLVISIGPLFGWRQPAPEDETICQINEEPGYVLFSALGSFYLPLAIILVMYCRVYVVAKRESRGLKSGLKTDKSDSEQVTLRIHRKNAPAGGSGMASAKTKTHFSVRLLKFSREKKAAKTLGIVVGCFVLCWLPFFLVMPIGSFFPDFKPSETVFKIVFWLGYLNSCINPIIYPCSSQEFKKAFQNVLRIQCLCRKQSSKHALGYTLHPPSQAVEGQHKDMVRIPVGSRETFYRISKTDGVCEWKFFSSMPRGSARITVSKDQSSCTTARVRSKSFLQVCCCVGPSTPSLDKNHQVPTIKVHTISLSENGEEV
T1 sequence (P25100 whole entry): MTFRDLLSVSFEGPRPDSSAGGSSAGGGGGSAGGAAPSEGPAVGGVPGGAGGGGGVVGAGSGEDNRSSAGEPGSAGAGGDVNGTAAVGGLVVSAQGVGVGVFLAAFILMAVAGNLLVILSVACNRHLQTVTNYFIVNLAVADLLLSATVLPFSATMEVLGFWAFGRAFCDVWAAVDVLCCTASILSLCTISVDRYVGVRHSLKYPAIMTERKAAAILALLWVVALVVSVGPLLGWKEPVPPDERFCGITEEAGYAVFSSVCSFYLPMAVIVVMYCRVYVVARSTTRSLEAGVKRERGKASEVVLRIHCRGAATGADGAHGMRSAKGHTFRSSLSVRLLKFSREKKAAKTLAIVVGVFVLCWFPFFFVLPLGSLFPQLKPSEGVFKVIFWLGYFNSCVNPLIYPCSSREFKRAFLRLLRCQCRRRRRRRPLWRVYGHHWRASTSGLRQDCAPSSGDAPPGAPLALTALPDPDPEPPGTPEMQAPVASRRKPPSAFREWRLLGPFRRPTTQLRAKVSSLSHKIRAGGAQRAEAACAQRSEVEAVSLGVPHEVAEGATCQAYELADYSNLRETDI
T1 sequence (P35368 whole entry): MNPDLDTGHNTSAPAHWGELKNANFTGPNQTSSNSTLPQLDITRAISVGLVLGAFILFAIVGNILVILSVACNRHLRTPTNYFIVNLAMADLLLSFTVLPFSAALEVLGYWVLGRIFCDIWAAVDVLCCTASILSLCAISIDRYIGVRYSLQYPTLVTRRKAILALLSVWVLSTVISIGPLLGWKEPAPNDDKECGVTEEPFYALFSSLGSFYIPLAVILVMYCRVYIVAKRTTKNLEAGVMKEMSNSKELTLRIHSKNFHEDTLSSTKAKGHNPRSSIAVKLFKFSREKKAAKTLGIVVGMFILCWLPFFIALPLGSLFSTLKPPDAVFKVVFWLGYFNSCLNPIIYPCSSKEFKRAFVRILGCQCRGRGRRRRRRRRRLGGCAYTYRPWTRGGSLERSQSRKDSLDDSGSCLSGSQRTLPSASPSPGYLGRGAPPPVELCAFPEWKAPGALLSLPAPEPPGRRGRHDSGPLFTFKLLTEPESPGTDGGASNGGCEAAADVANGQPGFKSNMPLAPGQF
Kind of series: Binding affinity to alpha1 adrenoreceptor (unknown origin).

For series [3], the target named is Voltage-gated inwardly rectifying potassium channel KCNH2 (Homo sapiens, UniProt Q12809). Briefly: Inhibition of human ERG by whole cell based electrophysiology assay.
The target in series [4] is T2, 5-hydroxytryptamine receptor 2C (Homo sapiens, UniProt P28335).
T2 sequence (P28335 whole entry): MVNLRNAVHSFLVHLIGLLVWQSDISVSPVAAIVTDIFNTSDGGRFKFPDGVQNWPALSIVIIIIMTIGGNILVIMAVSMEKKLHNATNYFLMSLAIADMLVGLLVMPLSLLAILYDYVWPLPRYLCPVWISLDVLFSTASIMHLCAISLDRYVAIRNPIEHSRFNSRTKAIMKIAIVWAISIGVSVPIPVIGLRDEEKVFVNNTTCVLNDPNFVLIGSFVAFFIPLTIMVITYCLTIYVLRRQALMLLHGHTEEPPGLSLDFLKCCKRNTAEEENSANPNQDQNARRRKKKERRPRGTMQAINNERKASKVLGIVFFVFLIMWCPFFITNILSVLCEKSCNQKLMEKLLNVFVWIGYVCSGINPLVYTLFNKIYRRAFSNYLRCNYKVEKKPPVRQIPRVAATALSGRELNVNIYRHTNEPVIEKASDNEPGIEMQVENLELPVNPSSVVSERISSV
Description: Binding affinity to 5HT2C receptor (unknown origin)

The target in series [5] is 5-hydroxytryptamine receptor 2A (Homo sapiens, UniProt P28223).
5-hydroxytryptamine receptor 2A (Homo sapiens, UniProt P28223), sequence (P28223 whole entry): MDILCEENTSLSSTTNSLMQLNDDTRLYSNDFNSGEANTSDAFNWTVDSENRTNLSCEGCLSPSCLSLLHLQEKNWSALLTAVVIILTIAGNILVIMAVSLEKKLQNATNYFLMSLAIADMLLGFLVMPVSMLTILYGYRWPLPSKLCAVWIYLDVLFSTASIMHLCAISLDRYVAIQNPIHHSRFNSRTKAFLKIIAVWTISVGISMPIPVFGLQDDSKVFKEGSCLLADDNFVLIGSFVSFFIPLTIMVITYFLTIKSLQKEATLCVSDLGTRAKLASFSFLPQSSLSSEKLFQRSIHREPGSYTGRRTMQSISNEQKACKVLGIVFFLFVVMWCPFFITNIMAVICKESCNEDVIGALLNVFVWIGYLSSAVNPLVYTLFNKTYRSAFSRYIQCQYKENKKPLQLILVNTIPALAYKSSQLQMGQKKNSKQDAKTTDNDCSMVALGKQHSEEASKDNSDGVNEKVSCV
Description: Binding affinity to 5HT2A receptor (unknown origin)

Voltage-gated inwardly rectifying potassium channel KCNH2, sequence (Q12809 whole entry): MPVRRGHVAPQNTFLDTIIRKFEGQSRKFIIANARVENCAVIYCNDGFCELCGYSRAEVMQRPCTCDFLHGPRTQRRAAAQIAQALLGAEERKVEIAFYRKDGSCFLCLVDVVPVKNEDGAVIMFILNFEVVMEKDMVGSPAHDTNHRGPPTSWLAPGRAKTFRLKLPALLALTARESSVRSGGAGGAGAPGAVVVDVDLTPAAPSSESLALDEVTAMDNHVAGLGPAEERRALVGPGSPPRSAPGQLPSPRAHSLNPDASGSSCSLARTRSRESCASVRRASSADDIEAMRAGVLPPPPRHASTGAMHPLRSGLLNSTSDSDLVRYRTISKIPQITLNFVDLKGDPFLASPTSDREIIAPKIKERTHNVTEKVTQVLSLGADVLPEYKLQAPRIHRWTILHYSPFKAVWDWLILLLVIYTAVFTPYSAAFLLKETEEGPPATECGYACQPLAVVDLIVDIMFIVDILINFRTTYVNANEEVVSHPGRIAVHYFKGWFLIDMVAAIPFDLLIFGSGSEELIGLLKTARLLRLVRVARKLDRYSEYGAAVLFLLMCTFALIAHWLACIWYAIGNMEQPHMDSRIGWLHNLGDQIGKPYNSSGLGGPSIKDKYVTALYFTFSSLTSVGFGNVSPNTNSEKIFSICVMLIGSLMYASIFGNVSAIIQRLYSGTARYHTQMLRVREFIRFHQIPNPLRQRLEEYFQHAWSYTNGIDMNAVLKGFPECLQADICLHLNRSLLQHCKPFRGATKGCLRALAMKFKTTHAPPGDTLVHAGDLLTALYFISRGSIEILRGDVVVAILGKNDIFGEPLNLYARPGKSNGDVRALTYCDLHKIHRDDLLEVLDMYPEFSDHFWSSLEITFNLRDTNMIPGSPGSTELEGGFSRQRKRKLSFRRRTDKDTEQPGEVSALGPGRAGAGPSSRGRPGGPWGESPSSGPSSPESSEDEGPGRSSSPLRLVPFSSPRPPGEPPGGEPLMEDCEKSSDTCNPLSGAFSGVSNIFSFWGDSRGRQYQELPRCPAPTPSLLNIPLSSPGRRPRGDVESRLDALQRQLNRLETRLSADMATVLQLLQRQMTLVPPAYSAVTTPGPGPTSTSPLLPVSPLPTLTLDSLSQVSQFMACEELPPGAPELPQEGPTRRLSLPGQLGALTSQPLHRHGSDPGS
5-hydroxytryptamine receptor 2A (Rattus norvegicus, UniProt P14842), sequence (P14842 whole entry): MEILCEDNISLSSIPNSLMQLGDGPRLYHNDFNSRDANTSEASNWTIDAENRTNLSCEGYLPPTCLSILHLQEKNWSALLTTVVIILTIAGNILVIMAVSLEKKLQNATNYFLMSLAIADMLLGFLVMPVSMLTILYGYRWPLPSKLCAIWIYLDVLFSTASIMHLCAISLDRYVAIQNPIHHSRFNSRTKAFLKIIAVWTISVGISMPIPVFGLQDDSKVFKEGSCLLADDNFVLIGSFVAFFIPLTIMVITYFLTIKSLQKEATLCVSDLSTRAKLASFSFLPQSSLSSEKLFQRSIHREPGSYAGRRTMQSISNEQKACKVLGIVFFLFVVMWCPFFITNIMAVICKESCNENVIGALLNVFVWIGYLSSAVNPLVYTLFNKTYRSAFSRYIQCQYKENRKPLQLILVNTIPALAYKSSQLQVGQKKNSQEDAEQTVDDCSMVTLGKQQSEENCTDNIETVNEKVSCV

In general, IC50 refers to the concentration at which inhibition is half-maximal. The term Ki denotes the equilibrium dissociation constant of an inhibitor or competing ligand from its target. For the molecule `O=C(NCCCCN1CCN(c2ccccc2)CC1)c1ccc2ncccc2c1`, in the series with Mus musculus, the Activity entry is recorded as “Non-toxic”. Besides, the figures for the IC50 in series [1] and in series [3] were 2.6 µM and 10 µM, respectively. Besides, the inhibition constant (Ki) in series [2] was 0.05 µM; in series [4] it was over 1 µM; in series [5] it was 0.066 µM.
